Results published in ChEMBL document CHEMBL3044726, “Synthesis and Acaricidal Activities of New Benzophenone O-Methyloximes” (2001).
≈ marks a conversion by molar mass, not a printed value.

Experiments:
Format in all cases: functional
Tetranychus urticae [1] = assay: Acaricidal activity against Tetranychus urticae (two-spotted spider mite) in two-leaf stage of kidney bean leaf surface at 500 ppm after 6 hr relative to control
Tetranychus urticae [2] = assay: Acaricidal activity against Tetranychus urticae (two-spotted spider mite) in two-leaf stage of kidney bean leaf surface at 15.6 ppm after 6 hr relative to control
Tetranychus urticae [3] = assay: Acaricidal activity against Tetranychus urticae (two-spotted spider mite) in two-leaf stage of kidney bean leaf surface at 62.5 ppm after 6 hr relative to control
Tetranychus urticae [4] = assay: Acaricidal activity against Tetranychus urticae (two-spotted spider mite) in two-leaf stage of kidney bean leaf surface at 250 ppm after 6 hr relative to control
Tetranychus kanzawai = assay: Acaricidal activity against Tetranychus kanzawai in kidney bean leaf surface after 48 hr
Tetranychus urticae [5] = assay: Acaricidal activity against Tetranychus urticae (two-spotted spider mite) in kidney bean leaf surface after 48 hr

For `CO/N=C(/c1ccc(Cl)cc1)c1ccccc1COc1nnc(C(F)(F)F)s1`, which Activity (Tetranychus urticae [1]) is on record?
The Activity was 0%.

For `CO/N=C(/c1ccc(Cl)cc1)c1ccccc1COc1ncccc1C(F)(F)F`, which Activity (Tetranychus urticae [1]) is on record?
Its Activity is 0%.

`CO/N=C(/c1ccc(Cl)cc1)c1ccccc1COc1ncc(C(F)(F)F)cc1Cl` was tested. Which Activity (Tetranychus urticae [1]) did it give?
The Activity was 0%.

With `CO/N=C(/c1ccccc1)c1ccccc1COc1ccc(C(F)(F)F)cn1` as the compound, how does the Activity (Tetranychus urticae [1]) read?
Its Activity is 0%.

How did the Activity (Tetranychus urticae [1]) turn out when `CON=C(c1ccccc1F)c1ccccc1COc1ccc(C(F)(F)F)cn1` was run?
Its Activity is 0%.

`CO/N=C(/c1cccc(F)c1)c1ccccc1COc1ccc(C(F)(F)F)cn1` was tested. Which Activity (Tetranychus urticae [1]) did it give?
Its Activity is 70%.

What does the source list for `CO/N=C(/c1ccc(F)cc1)c1ccccc1COc1ccc(C(F)(F)F)cn1`?
Activity (Tetranychus urticae [2]): 0%; Activity (Tetranychus urticae [3]): 70%; Activity (Tetranychus urticae [4]): 95%; Activity (Tetranychus urticae [1]): 95%

`CO/N=C(/c1ccccc1Cl)c1ccccc1COc1ccc(C(F)(F)F)cn1` was tested. Which Activity (Tetranychus urticae [1]) did it give?
Its Activity is 0%.

Which Activity (Tetranychus urticae [1]) does the source give for `CO/N=C(/c1cccc(Cl)c1)c1ccccc1COc1ccc(C(F)(F)F)cn1` here?
Its Activity is 0%.

How did the Activity (Tetranychus urticae [1]) turn out when `CO/N=C(/c1ccc(C)cc1)c1ccccc1COc1ccc(C(F)(F)F)cn1` was run?
Its Activity is 0%.

With `CO/N=C(/c1ccc(OC)cc1)c1ccccc1COc1ccc(C(F)(F)F)cn1` as the compound, how does the Activity (Tetranychus urticae [1]) read?
The Activity was 0%.

For `CO/N=C(/c1ccc(Br)cc1)c1ccccc1COc1ccc(C(F)(F)F)cn1`, which Activity (Tetranychus urticae [2]) is on record?
The Activity was 70%.

And the Activity (Tetranychus urticae [3])?
Its Activity is 95%.

And the Activity (Tetranychus urticae [4])?
Its Activity is 95%.

And the Activity (Tetranychus urticae [1])?
Its Activity is 95%.

Which LC50 (Tetranychus kanzawai) does the source give for `CO/N=C(/c1ccc(C(F)(F)F)cc1)c1ccccc1COc1ccc(C(F)(F)F)cn1` here?
Its LC50 is 7.2 µg/mL (≈ 15.8 µM).

And the LC50 (Tetranychus urticae [5])?
The LC50 was 24.8 µg/mL (≈ 54.6 µM).

What about the Activity (Tetranychus urticae [2]) of the same compound?
The Activity was 70%.

And the Activity (Tetranychus urticae [3])?
Its Activity is 95%.

What about the Activity (Tetranychus urticae [4]) of the same compound?
The Activity was 95%.

What about the Activity (Tetranychus urticae [1]) of the same compound?
The Activity was 95%.

How did the Activity (Tetranychus urticae [2]) turn out when `CO/N=C(/c1ccc(OC(F)(F)F)cc1)c1ccccc1COc1ccc(C(F)(F)F)cn1` was run?
The Activity was 0%.

And the Activity (Tetranychus urticae [3])?
The Activity was 70%.

What about the Activity (Tetranychus urticae [4]) of the same compound?
Its Activity is 70%.

What about the Activity (Tetranychus urticae [1]) of the same compound?
The Activity was 95%.

What does the source list for `CO/N=C(/c1ccc([N+](=O)[O-])cc1)c1ccccc1COc1ccc(C(F)(F)F)cn1`?
Activity (Tetranychus urticae [2]): 0%; Activity (Tetranychus urticae [3]): 70%; Activity (Tetranychus urticae [4]): 95%; Activity (Tetranychus urticae [1]): 95%

For `CO/N=C(/c1ccc(C#N)cc1)c1ccccc1COc1ccc(C(F)(F)F)cn1`, which Activity (Tetranychus urticae [2]) is on record?
The Activity was 0%.

And the Activity (Tetranychus urticae [3])?
The Activity was 70%.

And the Activity (Tetranychus urticae [4])?
The Activity was 95%.

And the Activity (Tetranychus urticae [1])?
Its Activity is 95%.

For `CO/N=C(/c1ccc(-c2ccccc2)cc1)c1ccccc1COc1ccc(C(F)(F)F)cn1`, which Activity (Tetranychus urticae [1]) is on record?
Its Activity is 0%.

With `CO/N=C(/c1ccc(Oc2ccccc2)cc1)c1ccccc1COc1ccc(C(F)(F)F)cn1` as the compound, how does the Activity (Tetranychus urticae [1]) read?
The Activity was 0%.

With `CO/N=C(/c1ccc(Cl)cc1)c1ccccc1COc1ccccc1` as the compound, how does the Activity (Tetranychus urticae [1]) read?
Its Activity is 0%.

How did the Activity (Tetranychus urticae [1]) turn out when `CO/N=C(/c1ccc(Cl)cc1)c1ccccc1COc1ccccc1Cl` was run?
Its Activity is 0%.

`CO/N=C(/c1ccc(Cl)cc1)c1ccccc1COc1cccc(Cl)c1` was tested. Which Activity (Tetranychus urticae [1]) did it give?
The Activity was 0%.

For `CO/N=C(/c1ccc(Cl)cc1)c1ccccc1COc1ccc(Cl)cc1`, which Activity (Tetranychus urticae [1]) is on record?
The Activity was 0%.

Which Activity (Tetranychus urticae [1]) does the source give for `CO/N=C(/c1ccc(Cl)cc1)c1ccccc1COc1ccccc1C(F)(F)F` here?
Its Activity is 0%.

`CO/N=C(/c1ccc(Cl)cc1)c1ccccc1COc1cccc(C(F)(F)F)c1` was tested. Which Activity (Tetranychus urticae [1]) did it give?
The Activity was 0%.

How did the Activity (Tetranychus urticae [3]) turn out when `CO/N=C(/c1ccc(Cl)cc1)c1ccccc1COc1ccc(C(F)(F)F)cc1` was run?
Its Activity is 0%.

And the Activity (Tetranychus urticae [4])?
The Activity was 95%.

And the Activity (Tetranychus urticae [1])?
The Activity was 95%.

For `CO/N=C(/c1ccc(Cl)cc1)c1ccccc1COc1ccc(C)cc1`, which Activity (Tetranychus urticae [1]) is on record?
Its Activity is 0%.

Which Activity (Tetranychus urticae [1]) does the source give for `CO/N=C(/c1ccc(Cl)cc1)c1ccccc1COc1ccc(C(C)(C)C)cc1` here?
Its Activity is 0%.

Which Activity (Tetranychus urticae [1]) does the source give for `CO/N=C(/c1ccc(Cl)cc1)c1ccccc1COc1ccc(OC(F)(F)F)cc1` here?
Its Activity is 0%.

How did the Activity (Tetranychus urticae [1]) turn out when `CO/N=C(/c1ccc(Cl)cc1)c1ccccc1COc1ccc(-c2ccccc2)cc1` was run?
Its Activity is 0%.

For `CO/N=C(\c1ccc(Cl)cc1)c1ccccc1COc1ccc(C(F)(F)F)cc1`, which Activity (Tetranychus urticae [4]) is on record?
The Activity was 70%.

What about the Activity (Tetranychus urticae [1]) of the same compound?
The Activity was 95%.

How did the Activity (Tetranychus urticae [1]) turn out when `CON=C(c1ccc(Cl)cc1)c1cccc(COc2ccc(C(F)(F)F)cc2)c1` was run?
The Activity was 0%.

Which Activity (Tetranychus urticae [1]) does the source give for `CON=C(c1ccc(Cl)cc1)c1ccc(COc2ccc(C(F)(F)F)cc2)cc1` here?
The Activity was 0%.

`CO/N=C(\c1ccc(F)cc1)c1ccccc1COc1ccc(C(F)(F)F)cc1` was tested. Which Activity (Tetranychus urticae [1]) did it give?
Its Activity is 70%.

With `CO/N=C(/c1ccc(F)cc1)c1ccccc1COc1ccc(C(F)(F)F)cc1` as the compound, how does the Activity (Tetranychus urticae [4]) read?
The Activity was 0%.

And the Activity (Tetranychus urticae [1])?
The Activity was 95%.

With `CON=C(c1ccc(F)cc1)c1cccc(COc2ccc(C(F)(F)F)cc2)c1` as the compound, how does the Activity (Tetranychus urticae [1]) read?
Its Activity is 0%.

How did the Activity (Tetranychus urticae [1]) turn out when `CON=C(c1ccc(F)cc1)c1ccc(COc2ccc(C(F)(F)F)cc2)cc1` was run?
The Activity was 0%.

`CO/N=C(/c1ccc(Cl)cc1)c1ccccc1Oc1ccc(C(F)(F)F)cc1` was tested. Which Activity (Tetranychus urticae [1]) did it give?
The Activity was 0%.

For `CO/N=C(/c1ccc(Cl)cc1)c1ccccc1OCc1ccc(C(F)(F)F)cc1`, which Activity (Tetranychus urticae [1]) is on record?
Its Activity is 0%.

Which results are given for `CO/N=C(/c1ccc(Cl)cc1)c1ccccc1COc1ccc(C(F)(F)F)cn1`?
LC50 (Tetranychus kanzawai): 9 µg/mL (≈ 21.4 µM); LC50 (Tetranychus urticae [5]): 16.4 µg/mL (≈ 39 µM); Activity (Tetranychus urticae [2]): 95%; Activity (Tetranychus urticae [3]): 95%; Activity (Tetranychus urticae [4]): 95%; Activity (Tetranychus urticae [1]): 95%

With `CC(C)(C)c1ccc(CSc2cnn(C(C)(C)C)c(=O)c2Cl)cc1` [PYRIDABEN] as the compound, how does the LC50 (Tetranychus kanzawai) read?
Its LC50 is 33.7 µg/mL (≈ 92.3 µM).

What about the LC50 (Tetranychus urticae [5]) of the same compound?
Its LC50 is 34.5 µg/mL (≈ 94.5 µM).
